18 compounds from US20120094958A1, “QUINOLINES AS INHIBITORS OF FARNESYL PYROPHOSPHATE SYNTHASE” (NOVARTIS AG, priority 2008, published 2012) can be followed below.

The assay deals with T1, Recombinant human Farnesyl Pyrophosphate synthase (FPPS) (Homo sapiens, UniProt P14324).
T1 construct: made in house
T1 sequence (P14324 1-353 isoform P14324-2): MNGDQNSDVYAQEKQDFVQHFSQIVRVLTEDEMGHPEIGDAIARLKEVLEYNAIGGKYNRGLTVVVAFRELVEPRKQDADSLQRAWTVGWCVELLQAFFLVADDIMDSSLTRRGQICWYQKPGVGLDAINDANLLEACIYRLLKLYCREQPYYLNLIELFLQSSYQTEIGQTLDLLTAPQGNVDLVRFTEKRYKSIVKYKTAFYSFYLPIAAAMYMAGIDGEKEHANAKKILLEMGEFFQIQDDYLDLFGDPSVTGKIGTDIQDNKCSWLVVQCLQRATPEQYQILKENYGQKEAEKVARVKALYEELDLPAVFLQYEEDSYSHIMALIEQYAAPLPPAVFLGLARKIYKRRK
In words: FPPS enzyme assay, scintillation proximity (FlashPlate). The format is biochemical. (In general: In a scintillation proximity assay essentially only radioactivity close to the scintillant gives light.)

Where [1] appears, read: FlashPlate SPA, GPP 150 nM, [3H]-IPP 150 nM, FPPS 500 pM, 45 minutes at room temperature, highest concentration tested 100 μM, read-out: FPPS IC50.

Read-outs that look alike come from different tables or passages of the source.

The IC50 is the point on the concentration scale where inhibition reaches its midpoint. With `O=C(OCc1ccccc1)c1ccc2cccc(-c3cccc4ncccc34)c2n1` [Example 2.c.i], the IC50 under setting [1] was > 10 µM.
The same measure, in the same setting: to `O=P(O)(O)CNc1ccc2cc(-c3cccnc3)cc(-c3cccc4ccccc34)c2n1` [Example 10, [(8-Naphthalen-1-yl-6-pyridin-3-yl-quinolin-2-ylamino)-methyl]-phosphonic acid] belongs 2.8 µM.
“rac. 2-[(amino-sulfonyl)-amino]-3-[(8-naphthalen-1-yl-quinoline-2-carbonyl)-amino]-propionic acid [Example 15.b]”: the IC50 under setting [1] was found to be 54.3 µM.
Regarding `O=C(NCP(=O)(O)O)c1ccc2cccc(-c3cccc4ccccc34)c2n1` [Example 3, {[(8-Naphthalen-1-yl-quinoline-2-carbonyl)-amino]-methyl}-phosphonic acid], under setting [1], the IC50 is 40.3 µM.
Still for that read-out and setting: to `O=P(O)(O)Cc1ccc2cccc(-c3cccc4ccccc34)c2n1` [Example 11, (8-Naphthalen-1-yl-quinolin-2-ylmethyl)-phosphonic acid] belongs 7.9 µM; to `CCOP(=O)(CNc1ccc2cc(-c3cccnc3)cc(-c3cccc4ccccc34)c2n1)OCC` [Example 10.1, [(8-Naphthalen-1-yl-6-pyridin-3-yl-quinolin-2-ylamino)-methyl]-phosphonic acid diethyl ester], 2.8 µM.
For `CCOP(=O)(CNc1ccc2cc(-c3ccn([Si](C(C)C)(C(C)C)C(C)C)c3)cc(-c3cccc4ccccc34)c2n1)OCC` [Example 9.1, {[8-Naphthalen-1-yl-6-(1-triisopropylsilanyl-1H-pyrrol-3-yl)-quinolin-2-ylamino]-methyl}-phosphonic acid diethyl ester], under setting [1], the IC50 is > 100 µM.
Still for that read-out and setting: the value for `COC(=O)C(CNC(=O)c1ccc2cccc(-c3cccc4ccccc34)c2n1)NS(=O)(=O)NC(=O)OC(C)(C)C` (racemic) [Example 13, rac. 2-[(tert-Butoxycarbonylamino-sulfonyl)-amino]-3-[(8-naphthalen-1-yl-quinoline-2-carbonyl)-amino]-propionic acid methyl ester] was 13.5 µM; that for `O=P(O)(O)CNc1ccc2cccc(-c3cccc4ccccc34)c2n1` [Example 5, [(8-Naphthalen-1-yl-quinolin-2-ylamino)-methyl]-phosphonic acid] was 4.1 µM.
On to `O=C(O)c1ccc2cccc(-c3cccc4[nH]ccc34)c2n1` [Example 2.a.ii], for which the IC50 was 6.5 µM.
Consider `O=C(O)c1ccc2cccc(-c3cccc4[nH]c(=O)ccc34)c2n1` [Example 2.g.ii], for which the IC50 under setting [1] was > 100 µM.
Regarding `O=P(O)(O)CNc1ccc2cc(-c3cc[nH]c3)cc(-c3cccc4ccccc34)c2n1` [Example 9, {[8-Naphthalen-1-yl-6-(1H-pyrrol-3-yl)-quinolin-2-ylamino]-methyl}-phosphonic acid], under setting [1], the IC50 came to 21.5 µM.
For `O=P(O)(O)CNCc1ccc2cccc(-c3cccc4ccccc34)c2n1` [Example 12, {[(8-Naphthalen-1-yl-quinolin-2-ylmethyl)-amino]-methyl}-phosphonic acid], the IC50 under setting [1] was > 100 µM.
On to `O=C(OCc1ccccc1)c1ccc2cccc(-c3cccc4[nH]c(=O)ccc34)c2n1` [Example 2.g.i], for which the IC50 under setting [1] was found to be 19.7 µM.
In the case of `O=C(OCc1ccccc1)c1ccc2cccc(-c3cccc4c3CCCC4=O)c2n1` [Example 2.d.i], the IC50 under setting [1] is > 10 µM.
For `O=C(O)c1ccc2cc(-c3ccc[nH]3)cc(-c3cccc4ccccc34)c2n1` [Example 36, 8-Naphthalen-1-yl-6-pyrrol-2-yl-quinoline-2-carboxylic acid], the IC50 under setting [1] turned out to be 0.14 µM.
Still for that read-out and setting: the value for `O=C(NCC1NS(=O)(=O)NC1=O)c1ccc2cccc(-c3cccc4ccccc34)c2n1` (racemic) [Example 15.a, rac. 8-Naphthalen-1-yl-quinoline-2-carboxylic acid (1,1,4-trioxo-1lambda*6*-[1,2,5]thiadiazolidin-3-ylmethyl)-amide] was > 100 µM; that for `O=P(O)(O)/C=C/c1ccc2cccc(-c3cccc4ccccc34)c2n1` [Example 40, [(E)-2-(8-Naphthalen-1-yl-quinolin-2-yl)-vinyl]-phosphonic acid] was 0.007 µM.
